Measured values reported in US10607721B2, “High-throughput, multi-omics approach to determine and validate de novo global mechanisms of action for drugs and toxins” (Vanderbilt University, priority 2015, dated 2020).

What was measured:
Type in all cases: cell-based, Human
A549 cells [1] = assay: Apoptosis assay (ApoONE, caspase 3/7 activation); conditions: 50 μM cisplatin
Procedure: Cell viability and apoptosis were assessed by CellTiter Glo (Promega) and ApoONE (Promega) kits, respectively. Molecular changes were screened using a MALDI-FTICR MS platform.
Human lung carcinoma A549 cells were obtained from ATCC (Manassas, Va.) and cultured in Dulbecco's Modified Eagle's Medium (DMEM, Gibco) with 10% v/v heat-inactivated fetal bovine serum (Atlanta Biologicals) and 1% v/v penicillin/streptomycin (P/S) (Gibco) at 37° C. with 5% CO2 atmosphere. Stable isotope labeling by amino acids in cell culture (SILAC) media were prepared using SILAC DMEM (Thermo Scientific) containing 10% v/v dialyzed heat-inactivated FBS (Fisher), 1% v/v P/S, proline (250 mg/L) (Thermo Scientific), and appropriate light and heavy labeled arginine (84 mg/L), lysine (146 mg/L). […]
At each time point, cell viability and apoptosis were assessed by CellTiter-Glo (Promega) and ApoONE (Promega) kits, respectively. Plates were incubated at 37° C. in a plate reader (BioTek) with data 174 acquisition every 10 min by luminescence (1 s read time, 200 gain) and fluorescence (485 nm excitation, 528 nm emission). […] Cell viability was also assessed using the LIVE/DEAD Viability/Cytotoxicity Kit for mammalian cells (ThermoFisher). […]

A549 cells [2] = assay: Multi-omics analysis (transcriptome, proteome, phosphoproteome, metabolome)
Procedure: Samples were analyzed for transcriptome changes by RNA sequencing at the Genomics Services Lab, HudsonAlpha, for proteome changes by label free, SILAC, and phospho-enriched SILAC LC-MS/MS, and metabolome changes by UPLC-IM-MS and data-independent acquisition (MSE) using both hydrophilic-interaction liquid chromatography and reverse phase liquid chromatography.
For proteomic and metabolomic label-free analyses, five sterile indium tin oxide (ITO)-coated glass slides (Delta Technologies) were placed in a tissue culture flask with removable lid (TPP). […] For proteomic analyses, slides were removed and washed 3 times with PBS, placed on dry ice, flash-frozen in liquid nitrogen, and stored at −80° C. prior to lysis. For metabolomics analysis, slides were washed in 50 mM ammonium formate.
For SILAC experiments, A549 cells were cultured in SILAC media for two weeks to ensure isotopic amino acid incorporation (verified by proteomic analysis). […] Following treatment cells were washed 3 times with 4° C. PBS. For phospho-SILAC, cells were washed with 4° C. PBS containing 1 mM sodium orthovanadate.
RNA was isolated using the RNeasy Mini Kit (Qiagen). For each time point, untreated and cisplatin-treated samples were isolated in triplicate and analyzed by the Genomics Services Lab at HudsonAlpha. RNAseq was performed using poly(A) selection on an Illumina HiSeq v4 sequencing platform. Reads were paired-end with a read length of 50 bp and 50 million reads per sample.
Cells were scraped from slides and lysed in 300 μL of 50 mM Tris pH 8, 150 mM NaCl, 1% Nonidet 40, 1 mM EDTA with added HALT Protease Inhibitor Cocktail (Thermo Scientific), centrifuged, and assayed for protein concentration (BCA Protein Assay, Thermo Scientific Pierce) using a SpectraMax M2e Microplate Reader with SoftMax Pro software version 5 (Molecular Devices). Aliquots of 100 μg of protein were acetone precipitated in six times the volume for 2 h at −80° C. Precipitates were washed three times with cold acetone and reconstituted in 10 μL of neat trifluoroethanol (TFE) and 10 μL of 100 mM Tris (pH 8.0). Samples were reduced with 1 μL of 0.5 M Tris(2-carboxyethyl)phosphine hydrochloride (TCEP) for 30 minutes at room temperature and alkylated with 2 μL of 0.5 M IAA for 30 minutes at room temperature in the dark. Samples were diluted with 100 mM Tris (pH 8.0) to obtain a final solution containing 10% TFE. The samples were digested with 2 μg of trypsin (a ratio of 50:1 protein 273 to enzyme) overnight at 37° C. A solution of 60% formic acid (FA) was added to the samples until they reached pH 3. Aliquots of 5 μg of digested sample were desalted using C18 spin tips (Protea) according to the supplied protocol and dried samples were reconstituted in 15 μL of 0.1% FA. Five replicates of cisplatin treated and control (untreated) cells were prepared in parallel.
Samples were analyzed on a Thermo Scientific Orbitrap Fusion Tribrid mass spectrometer in line with a Thermo Scientific Easy-nLC 1000 UHPLC system. Samples, 2 μL, were injected via the autosampler and loaded onto a Thermo Scientific Acclaim PepMap 100 C18 UHPLC column (75 μm×250 mm, 2 μm particle size, 100 Å pore size), with 0.1% FA in water (mobile phase A). Peptides were separated over a 140 minute two-step gradient with initial conditions set to 100% mobile phase A for 5 minutes before ramping to 20% mobile phase B, 0.1% FA in ACN, over 100 minutes and then 32% mobile phase B over 20 minutes. The remainder of the gradient was spent washing at 95% mobile phase B and returning to initial conditions. Eluted peptides were ionized via positive mode nanoelectrospray ionization (nESI) using a Nanospray Flex ion source (Thermo Fisher Scientific). The mass spectrometer was operated using a 3 second top speed data-dependent acquisition mode. Fourier transform mas spectra (FTMS) were collected using 120,000 resolving power, an automated gain control (AGC) target of 200,000, and a maximum injection time of 50 ms. […]

A549 cells [3] = assay: Molecular screening assay (MALDI FTICR MS, molecular variance score)
Procedure: After incubation for the respective times, wells were washed 3 times with PBS and stored at −80° C. The effect of different toxin dosage amounts and exposure times on the molecular content of a sample may be evaluated and reported directly for thousands of molecular species based upon the mass spectra that were collected for each of the samples. A comparison of the mass-to-charge (m/z) peak content between spectra from dosed cells and a reference spectrum from a non-dosed control sample delivers a mass spectrometric assessment of toxicity-induced molecular variation. However, seeking a data-driven global comparison instead of focusing on specific molecular species of interest makes the assessment of molecular change between the different experimental conditions very complex and high-dimensional. To determine which dosage amount induces the greatest molecular change, the inventors developed a quick and broad assessment of toxicity-induced molecular variance summarizing the entire recorded mass range. […]
Within each time point (represented by a 24-well plate), seven different dosage conditions were measured: six different toxin dosages and one reference condition (e.g., untreated). Per dosage condition there were nine distinct replicate measurements made: each dosage condition was represented by three replicate wells, from which three technical replicate spectra were measured per well. […]

[4] = 50 μM cisplatin for 1, 6, 24 and 48 h

Question: What does the source list for `N.N.[Cl][Pt][Cl]` [cisplatin]?
Answer: caspase activation over time (A549 cells [1]): ceased after 48 h; time of maximal caspase activation (A549 cells [1]): 24 h; BAD phosphorylation (pSer75 at 48 h; pSer118 at 24 h and 48 h) (A549 cells [2]; 50 μM cisplatin): increased; share of unique detected species significantly changed (A549 cells [2]; [4]): 24%; unique species significantly changed (A549 cells [2]; [4]): 13,483; phosphorylated ERK1 and/or ERK2 (pThr202/pTyr204; pThr185/pTyr187) (A549 cells [2]; 50 μM cisplatin, 1, 6, 24, 48 h): increased at each time point; ATP1A1 peptides (A549 cells [2]; 50 μM cisplatin, 6 and 24 h): decreased significantly; CUL4B C-terminal peptide (A549 cells [2]; 50 μM cisplatin, 1 h): increased; Ncx1 transcript (A549 cells [2]; 50 μM cisplatin, 6 h): significant decrease; BAK1 (A549 cells [2]; 50 μM cisplatin, 24 h): increased; CASP9 transcript (A549 cells [2]; 50 μM cisplatin, 24 h): downregulation; phosphorylated mTOR at pS1166 (A549 cells [2]; 50 μM cisplatin, 24 h): increased; HUWE1 abundance (A549 cells [2]; 50 μM cisplatin, 48 h): decreased; p53 pSer392 (A549 cells [2]; 50 μM cisplatin, beginning at 24 h): increased significantly; p53 pSer313, pSer314 and/or pSer315 (A549 cells [2]; 50 μM cisplatin, starting at 6 h): increased significantly; estrogen species (E1, E2) (A549 cells [2]; 50 μM cisplatin, E1 up at 1 h, E1 and E2 up at 6 h, decreased by 24 h): transiently increased; BAX, CYCS, APAF1 and CASP3 transcripts (A549 cells [2]; 50 μM cisplatin, no proteomic abundance changes): transcriptional upregulation; earliest time at which cisplatin-induced toxicity is measurable (A549 cells [3]; 50 μM): ≤ 1 h; optimal dose (maximum response in physiological and molecular screen, cell viability >50%) (A549 cells [3]; exposure 1 and 6 h molecular screen, 24 h caspase assay): 50 μM
